# ChEMBL document CHEMBL5096233, “Phenotypic Discovery of Triazolo[1,5-c]quinazolines as a First-In-Class Bone Morphogenetic Protein Amplifier Chemotype” (J Med Chem, 2022)
# pIC50: −log10 of the molar value. Active and inactive are the calls of the source. No cut-off for these calls is given here.
# Experiments:
# [1] = target: Casein kinase I isoform delta (Homo sapiens, UniProt P48730); experiment: Inhibition of CK1delta (unknown origin)
# [2] = target: Casein kinase I isoform epsilon (Homo sapiens, UniProt P49674); experiment: Inhibition of CK1epsilon (unknown origin)
# [3] = target: Casein kinase I isoform alpha (Homo sapiens, UniProt P48729); experiment: Inhibition of CK1alpha (unknown origin)
# C2C12 [4] = experiment: Induction of osteogenic differentiation in mouse C2C12 cells assessed as ALP activity at 5 uM preincubated with compound in the presence of BMP-4 for 72 hrs followed by substrate addition and measured after 1 hrs by luminescence based assay relative to control; type: functional; conditions: time 73 hrs
# [5] = target: T1, Phosphatidylinositol 4,5-bisphosphate 3-kinase catalytic subunit gamma isoform (Homo sapiens, UniProt P48736); experiment: Inhibition of PI3Kgamma (unknown origin) at 10 uM relative to control
# Target sequence in this assay (P48736 whole entry, looked up, canonical isoform): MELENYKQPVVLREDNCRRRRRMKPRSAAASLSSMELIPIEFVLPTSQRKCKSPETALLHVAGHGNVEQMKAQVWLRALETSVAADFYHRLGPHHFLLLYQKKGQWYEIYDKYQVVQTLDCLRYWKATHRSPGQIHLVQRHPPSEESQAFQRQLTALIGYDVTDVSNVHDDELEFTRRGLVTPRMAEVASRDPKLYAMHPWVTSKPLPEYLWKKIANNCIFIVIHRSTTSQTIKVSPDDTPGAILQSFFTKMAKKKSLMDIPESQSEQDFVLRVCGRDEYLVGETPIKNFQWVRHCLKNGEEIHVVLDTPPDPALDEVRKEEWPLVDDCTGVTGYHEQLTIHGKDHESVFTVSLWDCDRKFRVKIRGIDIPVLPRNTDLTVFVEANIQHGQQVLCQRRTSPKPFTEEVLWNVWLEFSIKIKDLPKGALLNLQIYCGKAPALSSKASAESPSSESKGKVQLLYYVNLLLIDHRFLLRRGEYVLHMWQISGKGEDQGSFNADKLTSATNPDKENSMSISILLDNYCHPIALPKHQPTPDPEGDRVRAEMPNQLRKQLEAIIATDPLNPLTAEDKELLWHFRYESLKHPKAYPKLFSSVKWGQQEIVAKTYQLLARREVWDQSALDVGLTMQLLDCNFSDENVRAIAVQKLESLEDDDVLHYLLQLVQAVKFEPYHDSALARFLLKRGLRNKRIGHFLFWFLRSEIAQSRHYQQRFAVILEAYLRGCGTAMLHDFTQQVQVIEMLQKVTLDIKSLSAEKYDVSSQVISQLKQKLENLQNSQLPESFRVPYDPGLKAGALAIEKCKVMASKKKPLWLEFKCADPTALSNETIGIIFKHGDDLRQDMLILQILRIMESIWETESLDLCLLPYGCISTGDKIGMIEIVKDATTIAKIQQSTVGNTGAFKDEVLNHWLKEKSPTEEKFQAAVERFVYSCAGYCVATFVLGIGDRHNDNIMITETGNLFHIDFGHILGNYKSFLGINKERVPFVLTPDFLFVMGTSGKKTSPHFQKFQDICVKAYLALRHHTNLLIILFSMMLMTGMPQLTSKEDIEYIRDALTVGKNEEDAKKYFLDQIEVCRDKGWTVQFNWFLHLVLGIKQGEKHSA
# [6] = target: T2, Phosphatidylinositol 4,5-bisphosphate 3-kinase catalytic subunit alpha isoform (Homo sapiens, UniProt P42336); experiment: Inhibition of PI3Kalpha (unknown origin) at 10 uM relative to control
# [7] = target: T3, Phosphatidylinositol 4,5-bisphosphate 3-kinase catalytic subunit delta isoform (Homo sapiens) (UniProt O00329); experiment: Inhibition of PI3Kdelta (unknown origin) at 10 uM relative to control
# T3 sequence (whole entry): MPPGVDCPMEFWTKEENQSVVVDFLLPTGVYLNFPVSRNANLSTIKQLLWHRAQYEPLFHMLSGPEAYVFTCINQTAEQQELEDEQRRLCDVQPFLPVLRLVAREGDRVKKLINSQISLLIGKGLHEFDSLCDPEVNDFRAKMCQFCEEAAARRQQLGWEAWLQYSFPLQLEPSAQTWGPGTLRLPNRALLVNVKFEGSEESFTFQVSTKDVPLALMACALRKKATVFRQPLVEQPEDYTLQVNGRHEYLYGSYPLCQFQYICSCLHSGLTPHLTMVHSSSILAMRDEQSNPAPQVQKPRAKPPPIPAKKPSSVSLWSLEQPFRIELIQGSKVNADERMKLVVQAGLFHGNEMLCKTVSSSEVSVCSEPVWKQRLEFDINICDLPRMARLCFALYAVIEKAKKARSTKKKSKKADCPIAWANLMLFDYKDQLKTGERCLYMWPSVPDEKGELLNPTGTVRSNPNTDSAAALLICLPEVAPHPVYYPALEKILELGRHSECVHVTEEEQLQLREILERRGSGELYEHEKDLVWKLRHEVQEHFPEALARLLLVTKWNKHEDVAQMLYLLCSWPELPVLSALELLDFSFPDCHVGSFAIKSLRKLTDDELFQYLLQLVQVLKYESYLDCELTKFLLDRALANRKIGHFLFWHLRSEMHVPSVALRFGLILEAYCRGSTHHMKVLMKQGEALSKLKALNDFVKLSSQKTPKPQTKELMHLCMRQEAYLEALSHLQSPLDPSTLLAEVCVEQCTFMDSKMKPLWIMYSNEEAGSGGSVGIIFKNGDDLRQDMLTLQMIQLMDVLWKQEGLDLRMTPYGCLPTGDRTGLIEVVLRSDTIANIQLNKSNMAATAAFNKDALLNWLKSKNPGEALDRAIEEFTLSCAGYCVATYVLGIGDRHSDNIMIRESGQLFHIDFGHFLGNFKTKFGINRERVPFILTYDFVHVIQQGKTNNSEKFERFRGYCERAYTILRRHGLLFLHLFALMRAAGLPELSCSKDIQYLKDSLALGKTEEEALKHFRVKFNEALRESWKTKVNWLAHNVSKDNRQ
# [8] = target: T4, Phosphatidylinositol 4,5-bisphosphate 3-kinase catalytic subunit beta isoform (Homo sapiens, UniProt P42338); experiment: Inhibition of PI3Kbeta (unknown origin) at 10 uM relative to control
# Target sequence in this assay (P42338 whole entry, looked up, canonical isoform): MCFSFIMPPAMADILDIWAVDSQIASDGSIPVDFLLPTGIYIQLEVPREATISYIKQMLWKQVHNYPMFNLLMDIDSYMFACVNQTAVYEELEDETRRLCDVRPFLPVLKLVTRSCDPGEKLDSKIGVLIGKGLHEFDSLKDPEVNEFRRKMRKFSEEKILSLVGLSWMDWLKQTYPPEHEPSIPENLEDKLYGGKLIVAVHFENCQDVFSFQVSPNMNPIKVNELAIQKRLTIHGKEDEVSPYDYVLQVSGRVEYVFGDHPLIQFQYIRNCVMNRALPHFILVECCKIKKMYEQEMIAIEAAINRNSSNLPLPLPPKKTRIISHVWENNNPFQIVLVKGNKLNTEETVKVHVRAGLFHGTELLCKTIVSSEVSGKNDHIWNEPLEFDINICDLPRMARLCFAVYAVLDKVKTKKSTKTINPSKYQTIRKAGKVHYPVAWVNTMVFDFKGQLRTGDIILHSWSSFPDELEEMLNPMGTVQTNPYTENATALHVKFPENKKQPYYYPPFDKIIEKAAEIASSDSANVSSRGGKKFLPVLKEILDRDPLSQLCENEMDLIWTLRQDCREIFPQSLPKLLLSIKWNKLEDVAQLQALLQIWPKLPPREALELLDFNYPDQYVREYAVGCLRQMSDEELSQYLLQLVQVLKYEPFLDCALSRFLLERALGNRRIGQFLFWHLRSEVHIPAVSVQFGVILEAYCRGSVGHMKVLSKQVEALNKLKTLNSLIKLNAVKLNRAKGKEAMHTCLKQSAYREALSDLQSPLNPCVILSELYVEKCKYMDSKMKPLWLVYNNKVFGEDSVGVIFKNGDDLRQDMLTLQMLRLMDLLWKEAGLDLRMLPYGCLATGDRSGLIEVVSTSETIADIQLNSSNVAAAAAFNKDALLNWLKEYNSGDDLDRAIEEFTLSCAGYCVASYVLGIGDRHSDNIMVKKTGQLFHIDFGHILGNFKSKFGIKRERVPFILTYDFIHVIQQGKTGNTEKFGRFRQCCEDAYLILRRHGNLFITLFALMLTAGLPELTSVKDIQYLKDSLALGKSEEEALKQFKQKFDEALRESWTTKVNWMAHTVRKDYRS
# [9] = target: Phosphatidylinositol 3-kinase catalytic subunit type 3 (Homo sapiens) (UniProt Q8NEB9); experiment: Inhibition of VPS34 (unknown origin) at 10 uM relative to control
# C2C12 [10] = experiment: Induction of osteogenic differentiation in mouse C2C12 cells assessed as ALP activity preincubated with compound in the presence of BMP-4 for 72 hrs followed by substrate addition and measured after 1 hrs by luminescence based assay; type: functional, cell-based; conditions: time 73.0 hrs
# HEK293T = experiment: Activation of BMP signaling in HEK293T cells expressing BRE-Vent2 luciferase reporter gene assessed as BRE activation by measuring increase in luciferase activity measured after 22 hrs in the presence of BMP-4 by dual-luciferase assay; type: cell-based; conditions: Homo sapiens, filed as activator
# C2C12 [11] = experiment: Induction of osteogenic differentiation in mouse C2C12 cells assessed as ALP activity preincubated with compound in the presence of BMP-4 for 72 hrs followed by substrate addition and measured after 1 hrs in the presence of PIK93 by luminescence based assay; type: functional, cell-based; conditions: time 73.0 hrs, DDE = dose-dependent effect
# C2C12 [12] = experiment: Induction of osteogenic differentiation in mouse C2C12 cells assessed as ALP activity preincubated with compound in the presence of BMP-4 for 72 hrs followed by substrate addition and measured after 1 hrs in the presence of BYL719 by luminescence based assay; type: functional, cell-based; conditions: time 73.0 hrs, DDE = dose-dependent effect
# [13] = Inhibition of DMH-1 induced cardiogenesis in mouse embryonic stem cells transfected with Myh6-GFP pretreated with compound followed by DMH-1 stimulation for 24 hrs in the presence of BMP-4 with replacement of media on day 7 and 9 and measured after 11 days by DAPI-staining based assay; conditions: embryonic stem cell
# [14] = target: DNA-dependent protein kinase catalytic subunit (Homo sapiens, UniProt P78527); experiment: Inhibition of DNA-PK (unknown origin)
# [15] = target: T1, Phosphatidylinositol 4,5-bisphosphate 3-kinase catalytic subunit gamma isoform; experiment: Inhibition of PI3Kgamma (unknown origin)
# Target sequence in this assay (P48736 whole entry, canonical isoform): as the sequence (P48736 whole entry, looked up, canonical isoform) above
# [16] = target: T2, Phosphatidylinositol 4,5-bisphosphate 3-kinase catalytic subunit alpha isoform; experiment: Inhibition of PI3Kalpha (unknown origin)
# [17] = target: T5, Phosphatidylinositol 4,5-bisphosphate 3-kinase catalytic subunit delta isoform (Homo sapiens, UniProt O00329); experiment: Inhibition of PI3Kdelta (unknown origin)
# T5 sequence (O00329 whole entry): T3 sequence (whole entry)
# [18] = target: T4, Phosphatidylinositol 4,5-bisphosphate 3-kinase catalytic subunit beta isoform; experiment: Inhibition of PI3Kbeta (unknown origin)
# Target sequence in this assay (P42338 whole entry, canonical isoform): as the sequence (P42338 whole entry, looked up, canonical isoform) above
# Casein kinase I isoform alpha, sequence (P48729 whole entry, canonical isoform): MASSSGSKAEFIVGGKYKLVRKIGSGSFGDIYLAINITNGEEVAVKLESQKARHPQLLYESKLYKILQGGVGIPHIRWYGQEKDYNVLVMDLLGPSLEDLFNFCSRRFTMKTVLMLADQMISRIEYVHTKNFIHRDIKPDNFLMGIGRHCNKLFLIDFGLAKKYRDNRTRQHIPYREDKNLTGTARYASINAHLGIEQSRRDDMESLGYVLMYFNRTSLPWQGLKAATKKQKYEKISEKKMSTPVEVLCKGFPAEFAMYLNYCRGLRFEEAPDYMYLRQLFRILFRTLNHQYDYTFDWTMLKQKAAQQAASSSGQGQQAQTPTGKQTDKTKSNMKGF
# Casein kinase I isoform epsilon, sequence (P49674 whole entry, canonical isoform): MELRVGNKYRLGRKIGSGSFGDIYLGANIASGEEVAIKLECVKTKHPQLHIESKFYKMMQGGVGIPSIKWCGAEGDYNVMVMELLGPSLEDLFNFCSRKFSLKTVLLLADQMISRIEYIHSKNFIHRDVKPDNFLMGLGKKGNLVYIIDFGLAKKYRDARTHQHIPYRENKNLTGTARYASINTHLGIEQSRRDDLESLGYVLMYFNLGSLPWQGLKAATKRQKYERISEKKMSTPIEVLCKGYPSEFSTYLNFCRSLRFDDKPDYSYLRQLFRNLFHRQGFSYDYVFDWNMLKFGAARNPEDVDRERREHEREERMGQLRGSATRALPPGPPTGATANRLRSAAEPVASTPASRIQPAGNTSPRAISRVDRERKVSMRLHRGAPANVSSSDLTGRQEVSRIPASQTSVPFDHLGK
# Casein kinase I isoform delta, sequence (P48730 whole entry, canonical isoform): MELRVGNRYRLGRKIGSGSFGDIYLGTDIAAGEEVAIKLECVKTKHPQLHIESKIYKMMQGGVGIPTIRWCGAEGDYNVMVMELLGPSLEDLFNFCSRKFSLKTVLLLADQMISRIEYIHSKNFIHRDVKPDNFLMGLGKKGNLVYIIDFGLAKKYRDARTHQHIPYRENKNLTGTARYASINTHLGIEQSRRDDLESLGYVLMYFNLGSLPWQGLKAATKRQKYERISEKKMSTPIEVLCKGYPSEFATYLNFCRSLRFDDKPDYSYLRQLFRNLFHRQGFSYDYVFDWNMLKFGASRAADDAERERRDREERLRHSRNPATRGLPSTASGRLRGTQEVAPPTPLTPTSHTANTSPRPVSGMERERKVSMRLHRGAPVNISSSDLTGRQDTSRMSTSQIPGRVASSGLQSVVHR
# Phosphatidylinositol 3-kinase catalytic subunit type 3 (Homo sapiens), sequence (Q8NEB9 whole entry): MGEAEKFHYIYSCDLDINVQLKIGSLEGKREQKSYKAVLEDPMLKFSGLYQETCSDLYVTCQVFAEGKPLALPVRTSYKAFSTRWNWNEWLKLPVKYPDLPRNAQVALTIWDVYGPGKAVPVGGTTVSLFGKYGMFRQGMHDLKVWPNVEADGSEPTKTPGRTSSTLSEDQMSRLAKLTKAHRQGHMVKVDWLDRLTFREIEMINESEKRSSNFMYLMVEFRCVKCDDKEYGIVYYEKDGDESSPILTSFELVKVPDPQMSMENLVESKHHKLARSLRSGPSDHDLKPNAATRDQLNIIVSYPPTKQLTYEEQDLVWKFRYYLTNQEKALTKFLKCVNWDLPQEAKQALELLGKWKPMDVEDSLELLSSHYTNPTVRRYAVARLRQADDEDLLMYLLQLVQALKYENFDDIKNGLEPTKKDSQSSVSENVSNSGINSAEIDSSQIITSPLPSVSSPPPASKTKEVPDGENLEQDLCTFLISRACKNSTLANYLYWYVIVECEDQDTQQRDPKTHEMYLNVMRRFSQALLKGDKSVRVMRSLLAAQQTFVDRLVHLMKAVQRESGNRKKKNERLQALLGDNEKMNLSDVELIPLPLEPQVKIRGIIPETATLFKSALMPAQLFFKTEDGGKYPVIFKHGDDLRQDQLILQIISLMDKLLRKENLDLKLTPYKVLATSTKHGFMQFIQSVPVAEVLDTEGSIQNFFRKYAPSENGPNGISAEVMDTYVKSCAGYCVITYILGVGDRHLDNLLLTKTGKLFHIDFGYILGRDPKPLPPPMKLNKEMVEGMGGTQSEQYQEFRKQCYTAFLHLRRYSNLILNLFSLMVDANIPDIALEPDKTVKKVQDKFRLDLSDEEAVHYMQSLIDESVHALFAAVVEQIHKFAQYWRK
Structure (SMILES),pIC50 [1],pIC50 [2],pIC50 [3],Activity (C2C12 [4]) [%],inhibition [5] [%],inhibition [6] [%],inhibition [7] [%],inhibition [8] [%],inhibition [9] [%],Activity (C2C12 [10]),Activity (HEK293T),other results
Nc1nc2ccc(Br)cc2c2nc(-c3ccco3)nn12,6.92,6.42,6.66,554,93,80,75,27,6,Active,Active,
Fc1cccc(-n2cnc3c(NCc4nc5c(F)c(F)ccc5[nH]4)nc(N4CCOCC4)nc32)c1,,,,,,,,,,,,Activity (C2C12 [11]): Dde; Activity (C2C12 [12]): Dde
Nc1nc2ccc(F)cc2c2nc(-c3ccco3)nn12,,,,,,,,,,Active,Active,
CC(=O)/N=c1/[nH]c(C)c(-c2ccc(Cl)c(S(=O)(=O)NCCO)c2)s1,,,,,,,,,,Active,,
Nc1nc2ccccc2c2nc(-c3ccco3)nn12,,,,,,,,,,Active,Active,
Nc1nc2ccc(Cl)cc2c2nc(-c3ncco3)nn12,6.37,5.68,5.53,166,91,82,79,29,10,Active,Active,
Cc1nc(NC(=O)N2CCC[C@H]2C(N)=O)sc1-c1ccnc(C(C)(C)C(F)(F)F)c1,,,,,,,,,,Active,,
Nc1nc2ccc(O)cc2c2nc(-c3ccco3)nn12,5.44,< 5.00,5.21,184,79,72,11,0,29,,Active,
Nc1nc2ccc(Cl)cc2c2nc(-c3ccco3)nn12 [CGS-15943],6.62,6.31,6.09,290,96,86,34,39,5,Active,Active,pIC50 [13]: 6.30; pIC50 [14]: 6.85; pIC50 [15]: 6.96; pIC50 [16]: 5.89; pIC50 [17]: 6.01; pIC50 [18]: 5.07
Nc1ccc2nc(N)n3nc(-c4ccco4)nc3c2c1,,,,,,,,,,,Active,
